Results on nine compounds are retold here after patent US20110311613A1, “TOPICAL FORMULATIONS OF FLAP INHIBITORS FOR THE TREATMENT OF DERMATOLOGICAL CONDITIONS” (AMIRA PHARMACEUTICAL, INC., priority 2008, published 2011).

Series [1] in a line: Solubility in topical formulation (75% propylene glycol, 15% transcutol, 10% water). The class given is physicochemical. The conditions noted are these: aqueous with cosolvent or surfactant or cyclodextrin, solution of 75% propylene glycol, read-out: soluble in topical formulation. The procedure: In one aspect, a topical formulation of a FLAP inhibitor compound is prepared by mixing a FLAP inhibitor compound with propylene glycol, transcutol and water. In one aspect, the topical formulation includes a FLAP inhibitor compound (10 mg/mL) in a solution of 75% propylene glycol, 15% transcutol, 10% water.
Using this formulation, the following FLAP inhibitor compounds are all soluble at 10 mg/mL: Compound A (Na salt), Compound B (Na salt), Compound C (acid and Na salt), Compound F (Na salt), Compound G (Na salt), Compound I (acid), and Compound J (Na salt).

Another series concerns Male Sprague Dawley Rats. The series can be described thus: Rat abraded skin model, acute irritancy (Draize scoring) following dermal administration. The class given is in vivo. As to conditions: 2 mL of 10 mg/mL solution on abraded skin, occluded 24 hours; erythema, edema scored at 24, 48 and 72 hours; each animal. The method, then:
(§1) Male Sprague Dawley Rats (n=3 per group) were shaved on the back such that approximately 20% of the body area surface was exposed. The shaved skin was mildly abraded then 2 mL of a 10 mg/mL solution of the test compound in a formulation containing 75% propylene glycol, 15% transcutol, 10% water was applied to the abraded skin. The site of administration was occluded for 24 hours after which time the skin was cleansed of excess material (if any). Plasma samples were drawn from each rat at 2, 4, 24 and 72 hours.
Visual analysis of erythema, edema or other dermal findings were recorded prior to dosing then at 24, 48 and 72 hours. Scoring followed a Draize protocol.

Series [2] in a line: Rat abraded skin model, skin penetration (plasma levels) following dermal administration. The class given is in vivo. The conditions noted are these: for plasma levels (PK analysis): abraded skin, samples at 2, 4, 24 and 72 hours; for concentration at 24 h: male, Sprague Dawley, plasma, topical, 20 mg, 2 mL of 10 mg/mL solution on abraded skin, occluded 24 hours, read-out: plasma levels at the 24 hour time point. The method, then: as §1

Series [3] has as its system arachidonic acid-induced ear inflammation. The series can be described thus: Mouse arachidonic acid-induced ear inflammation model, ear inflammation (ear punch weight). The class given is in vivo. The procedure: (§2) A mouse arachidonic acid (AA)—induced ear inflammation model was utilized to determine the extent of inhibition of ear swelling and leukotriene (LT) production by oral and topical application of a 5-lipoxygenase-activating protein (FLAP) inhibitor. Methods were adapted from Byrum et al., J Exp Med. 1997 Mar. 17; 185(6):1065-75).
(§3) Female CD-1 mice (weighing 18-20 grams) were administered compound orally (30 mg/kg in 10 ml/kg of 0.5% methylcellulose vehicle) or topically at concentrations of 0.01-10% by weight to the experimental ear and vehicle was applied to the opposite control ear. Four hours following compound administration a […] aliquot of a 4 mg/ml solution of AA in ethanol was applied to the experimental (right) ear and vehicle (ethanol) was applied to the control (left) ear. Thirty minutes later mice were placed into an enclosed Plexiglas chamber and exposed to CO2 for a period of 1-2 minutes or until breathing ceased. Ear biopsies were then taken for assessment of inflammation and leukotriene levels.
An eight mm ear punch was taken from a similar location of each experimental ear and each control ear and weighed. The extent of inflammation was determined by the difference in weight between the experimental ear and control ear [experimental ear (mg)-control ear (mg)]. A typical response for this assay is in the range of 4 and 12 mg increase in weight. Ear punches were then frozen for later assessment of leukotrienes.

Another series deals with Leukotriene B4 (LTB4). Nature of the series: Mouse arachidonic acid-induced ear inflammation model, leukotriene analysis (EIA) of LTB4. The class given is in vivo. The method, then: as §2, §3
(§4) The ear punch was placed into a tris buffer containing 0.01% triton x and homogenized using a polytron probe homogenizer. The sample was then centrifuged at 10,000×g for 10 minutes at 4° C. Leukotriene B4 (LTB4) and cysteinyl leukotriene (CysLT) concentrations in the supernatant were determined by enzyme-immunoassay (EIA).

Series [4] deals with cysteinyl leukotriene (CysLT). The series can be described thus: Mouse arachidonic acid-induced ear inflammation model, leukotriene analysis (EIA) of CysLT. The class given is in vivo. The procedure: as §2, §3, §4
For series [5] the following is noted: mouse, in vivo, 10 mg/kg.
Protocol: (§5) BALB/c mice were divided into groups and acclimatized in cages for 24 hours (day 0). The control group was exposed to air and the test group was exposed to smoke from seven unfiltered cigarettes per day for 8 days (day 1 to day 8). […] On day 14, bronchioalveolar lavage fluid (BALF) is tested for influx of cells, cytokines, chemokines (e.g., KC, IL-17, MIP-2, IL-6), mucin, and/or proteins. Lung histology is also examined.
Series [6] can be described thus: Trough plasma concentration in subchronic smoking mouse model. The conditions noted are these: BALB/c mice, combination DP2 receptor antagonist + FLAP inhibitor.
Protocol: as §5

Where two headings read alike, the source gives them in different places.

Turning to `COc1cnc(-c2ccc(Cn3c(CC(C)(C)C(=O)O)c(SC(C)(C)C)c4cc(OCc5ccc(C)cn5)ccc43)cc2)nc1` [Compound A, 3-[3-tert-Butylsulfanyl-1-[4-(5-methoxy-pyrimidin-2-yl)-benzyl]-5-(5-methyl-pyridin-2-ylmethoxy)-1H-indol-2-yl]-2,2-dimethyl-propionic acid], in series [1], the solubility is no less than 10000 µg/mL. In the series on Male Sprague Dawley Rats, this compound showed a Draize score of 0. Further, the “plasma levels (PK analysis)” value in series [2] is “measurable plasma levels”. In series [2], the concentration at 24 h is less than 110 ng/mL. The “reduction of inflammation by measure of change in ear weight” value in series [3] (applied dermally 4 hours prior to AA treatment (FIG. 3A)) was “about 60%”; in series [3] (oral, 30 mg/kg, 4 hours prior to AA treatment (FIG. 2A)), “about 65%”. Moreover, in series [3] (topical concentrations of 0.01-10%, all three endpoints (ear weight, LTB4, CysLT)), the “topical concentration of maximal activity” value came out at 0.1%. The “reduction of LTB4 levels” value with Leukotriene B4 (LTB4) (applied dermally 4 hours prior to AA treatment (FIG. 3B)) is recorded as “about 55%”; in the series on Leukotriene B4 (LTB4) (oral, 30 mg/kg, 4 hours prior to AA treatment (FIG. 2B)), “about 33%”. Further, the “reduction of CysLT levels” value in series [4] (applied dermally 4 hours prior to AA treatment (FIG. 3C)) is listed as “about 37%”; in series [4] (oral, 30 mg/kg, 4 hours prior to AA treatment (FIG. 2C)) it was “about 57%”.

Turning to `COc1cnc(-c2ccc(Cn3c(CC(C)(C)C(=O)O)c(SC(C)(C)C)c4cc(OCc5cnc(C)cn5)ccc43)cc2)nc1` [Compound B, 3-[3-tert-Butylsulfanyl-1-[4-(5-methoxy-pyrimidin-2-yl)-benzyl]-5-(5-methyl-pyrazin-2-ylmethoxy)-1H-indol-2-yl]-2,2-dimethyl-propionic acid], the solubility in series [1] is no less than 10000 µg/mL. In the series on Male Sprague Dawley Rats, this compound had a Draize score of 0. Further, in series [2], the “plasma levels (PK analysis)” value is listed as “measurable plasma levels” and the concentration at 24 h is less than 110 ng/mL.

In the case of `COc1cnc(-c2ccc(Cn3c(CC(C)(C)C(=O)O)c(SC(C)(C)C)c4cc(OC[C@@H]5Cc6ccccc6N5C(C)=O)ccc43)cc2)nc1` [Compound C, 3-{5-((S)-1-Acetyl-2,3-dihydro-1H-indol-2-ylmethoxy)-3-tert-butylsulfanyl-1-[4-(5-methoxy-pyrimidin-2-yl)-benzyl]-1H-indol-2-yl}-2,2-dimethyl-propionic acid], the solubility in series [1] was no less than 10000 µg/mL. This compound also yielded a Draize score with Male Sprague Dawley Rats of 0. Further, in series [2], the “plasma levels (PK analysis)” value is on record as “measurable plasma levels” and the concentration at 24 h was less than 110 ng/mL.

On to `CC(C)(C)Sc1c(CC(C)(C)C(=O)O)n(Cc2ccc(-c3ccc(F)cn3)cc2)c2ccc(OCc3ccc4ccccc4n3)cc12` [Compound F, 3-[3-tert-Butylsulfanyl-1-[4-(5-fluoro-pyridin-2-yl)-benzyl]-5-(quinolin-2-ylmethoxy)-1H-indol-2-yl]-2,2-dimethyl-propionic acid], for which, in series [1], the solubility is no less than 10000 µg/mL. Also, in the series with Male Sprague Dawley Rats, the Draize score stood at 0. Moreover, in series [2], the “plasma levels (PK analysis)” value is “measurable plasma levels” and the concentration at 24 h is less than 110 ng/mL.

As for `CCC(CC)(Cc1c(SC(C)(C)C)c2cc(OCc3ccc(C)cn3)ccc2n1Cc1ccc(-c2ncc(OC)cn2)cc1)C(=O)O` [Compound G, 2-[3-tert-Butylsulfanyl-1-[4-(5-methoxy-pyrimidin-2-yl)-benzyl]-5-(5-methyl-pyridin-2-ylmethoxy)-1H-indol-2-ylmethyl]-2-ethyl-butyric acid], in series [1], the solubility is no less than 10000 µg/mL. This compound yielded a Draize score in the series on Male Sprague Dawley Rats of 0. In addition, in series [2], the “plasma levels (PK analysis)” value is “measurable plasma levels” and the concentration at 24 h is less than 110 ng/mL.

For the compound `CC(=O)N1CCC[C@H]1COc1ccc2c(c1)c(SC(C)(C)C)c(CC(C)(C)C(=O)O)n2Cc1ccc(Cl)cc1` [Compound I, 3-[5-((S)-1-Acetyl-pyrrolidin-2-ylmethoxy)-3-tert-butylsulfanyl-1-(4-chloro-benzyl)-1H-indol-2-yl]-2,2-dimethyl-propionic acid], the solubility in series [1] was no less than 10000 µg/mL. This compound gave a Draize score in the series with Male Sprague Dawley Rats of 0. For the same compound, in series [2], the “plasma levels (PK analysis)” value is given as “measurable plasma levels” and the concentration at 24 h was less than 110 ng/mL.

As to `CC(C)(C)Sc1c(CC(C)(C)C(=O)O)n(Cc2ccc(-c3ccc(F)cn3)cc2)c2ccc(OCc3ccccn3)cc12` [Compound J, 3-[3-tert-butylsulfanyl-1-[4-(5-fluoro-pyridin-2-yl)-benzyl]-5-(pyridin-2-ylmethoxy)-1H-indol-2-yl]-2,2-dimethyl-propionic acid], the solubility in series [1] is no less than 10000 µg/mL. Also, the Draize score in the series with Male Sprague Dawley Rats is 0. Further, in series [2], the “plasma levels (PK analysis)” value was “measurable plasma levels” and the concentration at 24 h was less than 110 ng/mL.

For `CCN(Cc1cc(C(F)(F)F)ccc1-c1cncc(CC(=O)O)c1)C(=O)OCc1ccccc1` [DP2 receptor antagonist], the “Plasma concentration @ trough” value in series [5] is less than 10 nM.

As for `COc1ccc(-c2ccc(Cn3c(CC(C)(C)C(=O)O)c(SC(C)(C)C)c4cc(OCc5ccc(C)cn5)ccc43)cc2)cn1` [FLAP inhibitor, 3-(3-(tert-butylthio)-1-(4-(6-methoxypyridin-3-yl)benzyl)-5-((5-methylpyridin-2-yl)methoxy)-1H-indol-2-yl)-2,2-dimethylpropanoic acid], the “Plasma concentration @ trough” value in series [6] is recorded as 136 (FLAP inhibitor) nM.
